This assay is described as follows: Inhibitory activity against secretory Phospholipase A2 (s-PLA2) of Naja naja.

In BindingDB's records for doi:10.1016/s0960-894x(01)00229-3 (Peking University, 2001) one finds IC50 data, which are given here for two molecules.

In the case of `COc1ccc2nc(Oc3ccccc3)cc(CC(N)=O)c2c1` [2-(6-Methoxy-2-phenoxy-quinolin-4-yl)-acetamide], half-maximal inhibition (IC50) was put at 1 µM. This counts as single-digit micromolar.

With `COc1ccc2nc(Oc3ccccc3)cc(C(N)=O)c2c1` [6-Methoxy-2-phenoxy-quinoline-4-carboxylic acid amide], the midpoint of inhibition, the IC50, lay at 10 µM.
